The values below come from ChEMBL document CHEMBL1130791, “Novel HIV-protease inhibitors containing beta-hydroxyether and -thioether dipeptide isostere surrogates: modification of the P3 ligand” (Bioorg Med Chem Lett, 1998).

Calls of active or inactive are those of the source. No cut-off for these calls is given here.

Test [1] concerns the target Human immunodeficiency virus type 1 protease (Human immunodeficiency virus 1) (UniProt Q72874). Description: Antiviral activity against the HTLV-III strain of HIV-1 in CEM cell lines. In kind it is functional, cell-based. The settings on record: CCRF-CEM.
Test [2] has as its target T1, Human immunodeficiency virus type 1 protease (Human immunodeficiency virus 1, UniProt Q72874). Description: Inhibitory activity against HIV-1 protease using scintillation proximity assay (SPA assay).
Test [3] deals with Human immunodeficiency virus type 1 protease (Human immunodeficiency virus 1) (UniProt Q72874). The test is described as follows: Inhibitory activity against HIV-1 protease using scintillation proximity assay (SPA assay) at a concentration of 500 nM.
Test [4] has as its system CCRF-CEM. The test is described as follows: Compound was evaluated for antiviral activity against the HTLV-III strain of HIV-1 in CEM cell lines; NA means not active. In kind it is functional, cell-based. The settings on record: Homo sapiens.
For test [5], the target named is T1, Human immunodeficiency virus type 1 protease. The test is described as follows: Inhibitory activity against HIV-1 protease using scintillation proximity assay (SPA assay); NA means not active.

As to `CC(C)(C)NC(=O)c1c(OC[C@@H](O)[C@H](Cc2ccccc2)NC(=O)[C@H](CC(N)=O)NC(=O)c2ccc3c(c2)C(=O)c2ccccc2C3=O)ccc2ccccc12`, the ID50 in test [1] was found to be 160 nM. This molecule had a half-maximal inhibitory concentration (IC50) in test [2] of 62 nM.

As to `CC(C)(C)NC(=O)c1ccccc1OC[C@@H](O)[C@H](Cc1ccccc1)NC(=O)[C@H](CC(N)=O)NC(=O)c1cnnc2ccccc12`, the ID50 in test [1] was determined as 9300 nM. The molecule further returned an IC50 in test [2] of 130 nM.

Take `CC(C)(C)NC(=O)c1ccccc1OC[C@@H](O)[C@H](Cc1ccccc1)NC(=O)[C@H](CC(N)=O)NS(=O)(=O)c1ccc2ccccc2c1`: the inhibition in test [3] was determined as 42%. In test [4], the ID50 result was “inactive”.

Take `CC(C)(C)NC(=O)c1ccccc1OC[C@@H](O)[C@H](Cc1ccccc1)NC(=O)[C@H](CC(N)=O)NC(=O)c1ccc2c(c1)C(=O)c1ccccc1C2=O`: the ID50 in test [1] amounted to 330 nM. Further, in test [2], the IC50 came out at 41 nM.

`CC(C)(C)NC(=O)c1ccccc1OC[C@H](O)[C@H](Cc1ccccc1)NC(=O)[C@H](CC(N)=O)NC(=O)c1cnnc2ccccc12` registered an ID50 in test [1] of 13400 nM. The molecule also came in with an IC50 in test [2] of 500 nM.

Take `CC(C)(C)NC(=O)c1ccccc1OC[C@H](O)[C@H](Cc1ccccc1)NC(=O)[C@H](CC(N)=O)NC(=O)c1cnc2ccccc2n1`: the ID50 in test [1] is 610 nM. For the same molecule, the IC50 in test [2] was 100 nM.

The molecule `CC(C)(C)NC(=O)c1ccccc1OC[C@@H](O)[C@H](Cc1ccccc1)NC(=O)[C@H](CC(N)=O)NC(=O)c1ccc2c(c1)S(=O)(=O)c1ccccc1C2=O` returned an ID50 in test [1] of 550 nM. The midpoint of inhibition in test [2], the IC50, lay at 44 nM.

Turning to `CC(C)(C)NC(=O)c1ccccc1OC[C@H](O)[C@H](Cc1ccccc1)NC(=O)[C@H](CC(N)=O)NS(=O)(=O)c1ccc2ccccc2c1`, the ID50 result in test [4] was “inactive”.

For the molecule `CC(C)(C)NC(=O)c1ccccc1OC[C@@H](O)[C@H](Cc1ccccc1)NC(=O)[C@H](CC(N)=O)NC(=O)c1ccc2ccccc2n1`, the IC50 in test [2] was found to be 45 nM.

The molecule `CC(C)(C)NC(=O)c1ccccc1SC[C@@H](O)[C@H](Cc1ccccc1)NC(=O)[C@H](CC(N)=O)NC(=O)c1ccc2ccccc2n1` had a half-inhibitory concentration (IC50) in test [2] of 90 nM. Compared with the last molecule, the IC50 is about 2-fold higher.

Molecule `CC(C)(C)NC(=O)c1ccccc1OC[C@H](O)[C@H](Cc1ccccc1)NC(=O)[C@H](CC(N)=O)NC(=O)c1ccc2c(c1)C(=O)c1ccccc1C2=O` came in with an ID50 in test [1] of 2300 nM. This molecule gave an IC50 in test [2] of 90 nM.

In turn, `CC(C)(C)NC(=O)c1ccccc1NC[C@@H](O)[C@H](Cc1ccccc1)NC(=O)[C@H](CC(N)=O)NC(=O)c1ccc2ccccc2n1` displayed an IC50 in test [2] of 94 nM.

Turning to `CC(C)(C)NC(=O)c1ccccc1SC[C@H](O)[C@H](Cc1ccccc1)NC(=O)[C@H](CC(N)=O)NC(=O)c1ccccn1`, the half-maximal inhibitory concentration (IC50) entry in test [5] is on record as “Not Active”.

In the case of `CC(C)(C)NC(=O)c1ccccc1OC[C@@H](O)[C@H](Cc1ccccc1)NC(=O)[C@H](CC(N)=O)NC(=O)c1nc2ccccc2nc1O`, the inhibition in test [3] worked out at 36%. Moreover, the ID50 entry in test [4] is “inactive”.

As to `CC(C)(C)NC(=O)c1ccccc1OC[C@@H](O)[C@H](Cc1ccccc1)NC(=O)[C@H](CC(N)=O)NC(=O)c1cnc2ccccc2n1`, the ID50 in test [1] stood at 630 nM. In test [2], the midpoint of inhibition, the IC50, lay at 63 nM.

The molecule `CC(C)(C)NC(=O)c1ccccc1OC[C@H](O)[C@H](Cc1ccccc1)NC(=O)[C@H](CC(N)=O)NC(=O)c1cc(O)c2ccccc2n1` displayed an ID50 in test [1] of 11200 nM. In test [2], this molecule came in with an IC50 of 410 nM.

Molecule `CC(C)(C)NC(=O)c1c(OC[C@@H](O)[C@H](Cc2ccccc2)NC(=O)[C@H](CC(N)=O)NC(=O)c2ccc3c(c2)S(=O)(=O)c2ccccc2C3=O)ccc2ccccc12` gave an ID50 in test [1] of 100 nM. In addition, the IC50 in test [2] was determined as 60 nM.

For `CC(C)(C)NC(=O)c1ccccc1SC[C@H](O)[C@H](Cc1ccccc1)NC(=O)[C@H](CC(N)=O)NC(=O)c1ccc2ccccc2c1`, in test [1], the ID50 amounted to 13400 nM. The molecule also yielded an IC50 in test [2] of 390 nM.

As for `CC(C)(C)NC(=O)c1ccccc1OC[C@H](O)[C@H](Cc1ccccc1)NC(=O)[C@H](CC(N)=O)NC(=O)c1nc2ccccc2nc1O`, the inhibition in test [3] amounted to 35%. The same molecule came in with an ID50 in test [1] of 10600 nM.
